From ChEMBL document CHEMBL3992555, “Design, synthesis and preliminary biological evaluation of indole-3-carboxylic acid-based skeleton of Bcl-2/Mcl-1 dual inhibitors” (Bioorg Med Chem, 2017)

Key:
[1] = molecular target: Bcl-2-like protein 1 (Homo sapiens, UniProt Q07817); assay: Inhibition of N-terminal FAM-labeled Bid-BH3 peptide binding to Bcl-XL (unknown origin) preincubated for 30 mins followed by N-terminal FAM-labeled Bid-BH3 peptide addition measured after 20 mins by fluorescence polarization assay
[2] = molecular target: Apoptosis regulator Bcl-2 (Homo sapiens, UniProt P10415); assay: Inhibition of N-terminal FAM-labeled Bid-BH3 peptide binding to Bcl2 (unknown origin) preincubated for 30 mins followed by N-terminal FAM-labeled Bid-BH3 peptide addition measured after 20 mins by fluorescence polarization assay
[3] = molecular target: Induced myeloid leukemia cell differentiation protein Mcl-1 (Homo sapiens, UniProt Q07820); assay: Inhibition of N-terminal FAM-labeled Bid-BH3 peptide binding to MCL1 (unknown origin) preincubated for 30 mins followed by N-terminal FAM-labeled Bid-BH3 peptide addition measured after 20 mins by fluorescence polarization assay
[4] = tested on: K562; assay: Antiproliferative activity against human K562 cells after 48 hrs by MTT assay; type: functional, cell-based; conditions: K562, 48 h
[5] = tested on: MDA-MB-231; assay: Antiproliferative activity against human MDA-MB-231 cells after 48 hrs by MTT assay; type: functional, cell-based; conditions: MDA-MB-231, 48 h
[6] = tested on: PC-3; assay: Antiproliferative activity against human PC3 cells after 48 hrs by MTT assay; type: functional, cell-based; conditions: PC-3, 48 h

Bcl-2-like protein 1, sequence (Q07817 whole entry): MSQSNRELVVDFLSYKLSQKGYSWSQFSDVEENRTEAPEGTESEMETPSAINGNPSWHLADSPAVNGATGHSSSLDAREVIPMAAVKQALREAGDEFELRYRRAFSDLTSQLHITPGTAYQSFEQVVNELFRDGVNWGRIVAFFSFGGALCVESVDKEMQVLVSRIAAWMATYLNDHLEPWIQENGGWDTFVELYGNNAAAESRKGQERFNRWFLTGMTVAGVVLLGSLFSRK
Induced myeloid leukemia cell differentiation protein Mcl-1, sequence (Q07820 whole entry): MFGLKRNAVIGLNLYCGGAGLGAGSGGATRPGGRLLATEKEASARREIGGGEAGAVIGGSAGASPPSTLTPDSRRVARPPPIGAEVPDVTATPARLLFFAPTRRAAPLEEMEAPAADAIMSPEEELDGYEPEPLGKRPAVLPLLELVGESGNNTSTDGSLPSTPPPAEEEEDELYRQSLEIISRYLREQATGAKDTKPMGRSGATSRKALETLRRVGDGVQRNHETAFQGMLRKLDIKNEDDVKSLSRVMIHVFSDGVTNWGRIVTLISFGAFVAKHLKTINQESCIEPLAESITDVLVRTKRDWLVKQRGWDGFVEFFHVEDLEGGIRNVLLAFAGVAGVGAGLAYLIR
Apoptosis regulator Bcl-2, sequence (P10415 whole entry): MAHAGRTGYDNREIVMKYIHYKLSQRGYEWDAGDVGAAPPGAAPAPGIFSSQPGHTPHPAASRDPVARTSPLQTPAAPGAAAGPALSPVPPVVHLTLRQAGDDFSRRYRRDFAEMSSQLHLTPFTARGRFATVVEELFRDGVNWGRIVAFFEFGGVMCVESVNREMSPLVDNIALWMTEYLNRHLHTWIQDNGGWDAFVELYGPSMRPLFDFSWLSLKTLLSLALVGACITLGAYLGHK

Ki [2] [µM]	Compound	other results
> 10	O=C(N[C@@H](Cc1ccc(OCc2ccc([N+](=O)[O-])cc2)cc1)C(=O)NS(=O)(=O)c1ccc(Cl)c([N+](=O)[O-])c1)c1cn(Cc2ccc(-c3ccccc3)cc2)c2ccccc12	–
> 10	CCCOc1ccc(C[C@H](NC(=O)c2cn(Cc3ccc(-c4ccc(Cl)cc4)cc3)c3ccccc23)C(=O)NS(=O)(=O)c2ccc([N+](=O)[O-])cc2)cc1	–
> 10	O=C(N[C@@H](Cc1ccc(Br)cc1)C(=O)NS(=O)(=O)c1ccc(Cl)c([N+](=O)[O-])c1)c1cn(Cc2ccc(-c3ccc(Cl)cc3)cc2)c2ccccc12	–
5.6	CCCOc1ccc(C[C@H](NC(=O)c2cn(Cc3ccc(-c4ccccc4)cc3)c3ccccc23)C(=O)NS(=O)(=O)c2ccc(Cl)c([N+](=O)[O-])c2)cc1	–
0.75	COc1ccc(-c2ccc(Cn3cc(C(=O)N[C@@H](Cc4c[nH]c5ccccc45)C(=O)NS(=O)(=O)c4ccc(C)cc4)c4ccccc43)cc2)cc1	IC50 [4]: 10.1 µM; IC50 [5]: 11.5 µM; IC50 [6]: 18.3 µM; Ki [3]: 0.53 µM
> 10	O=C(N[C@@H](Cc1ccc(OCc2ccccc2)cc1)C(=O)NS(=O)(=O)c1ccc(Cl)c([N+](=O)[O-])c1)c1cn(Cc2ccc(-c3ccc(Cl)cc3)cc2)c2ccccc12	–
> 10	O=C(N[C@@H](Cc1ccc(Br)cc1)C(=O)NS(=O)(=O)c1ccc(Cl)c([N+](=O)[O-])c1)c1cn(Cc2ccc(-c3ccccc3)cc2)c2ccccc12	–
> 10	COc1ccc(-c2ccc(Cn3cc(C(=O)N[C@@H](Cc4ccccc4)C(=O)NS(=O)(=O)c4ccc(Cl)c([N+](=O)[O-])c4)c4ccccc43)cc2)cc1	–
> 10	CCCOc1ccc(C[C@H](NC(=O)c2cn(Cc3ccc(-c4ccc(Cl)cc4)cc3)c3ccccc23)C(=O)NS(=O)(=O)c2ccc(Cl)c([N+](=O)[O-])c2)cc1	–
> 10	COc1ccc(-c2ccc(Cn3cc(C(=O)N[C@@H](Cc4ccc(Br)cc4)C(=O)NS(=O)(=O)c4ccc(Cl)c([N+](=O)[O-])c4)c4ccccc43)cc2)cc1	–

Second part, the compound before the results:

Compound	Ki [2] [µM]	other results
Cc1ccc(S(=O)(=O)NC(=O)[C@H](Cc2ccccc2)N2C(=O)/C(=C/c3ccc(-c4ccccc4)cc3)SC2=S)cc1	0.76	Ki [1]: 0.81 µM; Ki [3]: 0.44 µM
CCCOc1ccc(C[C@H](NC(=O)c2cn(Cc3ccc(-c4ccc(OC)cc4)cc3)c3ccccc23)C(=O)NS(=O)(=O)c2ccc(Cl)c([N+](=O)[O-])c2)cc1	> 10	–
COc1ccc(-c2ccc(Cn3cc(C(=O)N[C@@H](Cc4ccccc4)C(=O)O)c4ccccc43)cc2)cc1	> 10	–
O=C(N[C@@H](Cc1ccccc1)C(=O)NS(=O)(=O)c1ccccc1)c1cn(Cc2ccc(-c3ccccc3)cc2)c2ccccc12	> 10	–
COc1ccc(-c2ccc(Cn3cc(C(=O)N[C@@H](Cc4ccc(OCc5ccc([N+](=O)[O-])cc5)cc4)C(=O)NS(=O)(=O)c4ccc(Cl)c([N+](=O)[O-])c4)c4ccccc43)cc2)cc1	> 10	–
O=C(N[C@@H](Cc1ccc(OCc2ccccc2)cc1)C(=O)NS(=O)(=O)c1ccc(Cl)c([N+](=O)[O-])c1)c1cn(Cc2ccc(-c3ccccc3)cc2)c2ccccc12	> 10	–
COc1ccc(-c2ccc(Cn3cc(C(=O)N[C@@H](Cc4ccccc4)C(=O)NS(=O)(=O)c4ccccc4)c4ccccc43)cc2)cc1	1.3	–
Cc1cc2c(C(C)C)c(O)c(O)c(C=O)c2c(O)c1-c1c(C)cc2c(C(C)C)c(O)c(O)c(C=O)c2c1O [GOSSYPOL]	–	IC50 [4]: 8.28 µM; IC50 [5]: 8.54 µM; IC50 [6]: 8.58 µM
COc1ccc(-c2ccc(Cn3cc(C(=O)N[C@@H](Cc4ccc(OCc5ccccc5)cc4)C(=O)NS(=O)(=O)c4ccc(Cl)c([N+](=O)[O-])c4)c4ccccc43)cc2)cc1	> 10	–
O=C(N[C@@H](Cc1ccc(Br)cc1)C(=O)NS(=O)(=O)c1ccccc1)c1cn(Cc2ccc(-c3ccc(Cl)cc3)cc2)c2ccccc12	0.91	–
O=C(N[C@@H](Cc1ccccc1)C(=O)NS(=O)(=O)c1ccccc1)c1cn(Cc2ccc(-c3ccc(Cl)cc3)cc2)c2ccccc12	0.74	IC50 [4]: 32.4 µM; IC50 [5]: 29.6 µM; IC50 [6]: 23.6 µM; Ki [1]: 2.1 µM; Ki [3]: 0.49 µM
O=C(N[C@@H](Cc1ccccc1)C(=O)NS(=O)(=O)c1ccc(Cl)c([N+](=O)[O-])c1)c1cn(Cc2ccc(-c3ccccc3)cc2)c2ccccc12	2.6	–
O=C(N[C@@H](Cc1ccccc1)C(=O)NS(=O)(=O)c1ccc(Cl)c([N+](=O)[O-])c1)c1cn(Cc2ccc(-c3ccc(Cl)cc3)cc2)c2ccccc12	0.26	IC50 [4]: 19.7 µM; IC50 [5]: 29.5 µM; IC50 [6]: 28.8 µM; Ki [1]: 0.71 µM; Ki [3]: 0.072 µM
Cc1ccc(-c2ccc(Cn3cc(C(=O)N[C@@H](Cc4ccc(OCc5ccccc5)cc4)C(=O)NS(=O)(=O)c4ccc(Cl)c([N+](=O)[O-])c4)c4ccccc43)cc2)cc1	> 10	–
CC(C)C[C@H](NC(=O)c1cn(Cc2ccc(-c3ccc(Cl)cc3)cc2)c2ccccc12)C(=O)NS(=O)(=O)c1ccccc1	0.92	Ki [1]: 6.2 µM; Ki [3]: 0.6 µM
COc1ccc(-c2ccc(Cn3cc(C(=O)N[C@@H](Cc4c[nH]c5ccccc45)C(=O)NS(=O)(=O)c4ccc(Cl)c([N+](=O)[O-])c4)c4ccccc43)cc2)cc1	> 10	–
O=C(N[C@@H](Cc1ccc(OCc2ccc([N+](=O)[O-])cc2)cc1)C(=O)NS(=O)(=O)c1ccc(Cl)c([N+](=O)[O-])c1)c1cn(Cc2ccc(-c3ccc(Cl)cc3)cc2)c2ccccc12	> 10	–
